Measured values: DBAASP
Converted amounts (≈) assume the structure as drawn. “And” between values parts separate entries of the source, which are not always exact repeats. Identical values can stand only once.

Columns and labels:
Assay in all cases: ≥ marks a high value that may be exact or a test limit, other limits are often not marked, values filed in µg/mL are converted to µM
Bacillus megaterium = test system: Bacillus megaterium
Staphylococcus aureus = test system: Staphylococcus aureus
[1] = test system: Pseudomonas aeruginosa ATCC 27853
[2] = test system: Staphylococcus aureus ATCC 33591
[3] = test system: Staphylococcus epidermidis ATCC 35984
[4] = test system: Staphylococcus aureus ATCC 25923
[5] = test system: Staphylococcus aureus ATCC 6538
[6] = test system: Salmonella enterica subsp. enterica serovar Typhimurium ATCC 14028
[7] = test system: Pseudomonas aeruginosa ATCC 13388
[8] = test system: Escherichia coli ATCC 11219
[9] = test system: Klebsiella pneumoniae ATCC 10031
[10] = test system: Pseudomonas syringae pv. syringae DSM 10604
[11] = test system: Clavibacter michiganensis subsp. michiganensis DSM 46294
[12] = test system: Pectobacterium carotovorum subsp. carotovorum DSM 30168
[13] = test system: Pseudomonas syringae pv. tomato DC3000
Cladosporium herbarum = test system: Cladosporium herbarum
[14] = test system: Xanthomonas vesicatoria DSM 50861
Botrytis cinerea = test system: Botrytis cinerea
Alternaria alternata = test system: Alternaria alternata
[15] = test system: Pseudomonas corrugata DSM 7228
[16] = test system: Staphylococcus aureus ATCC 43300
[17] = test system: Staphylococcus aureus ATCC BAA-39
[18] = test system: Listeria monocytogenes ATCC 19115
[19] = test system: Escherichia coli ATCC 25922
[20] = test system: Klebsiella pneumoniae ATCC 13883
[21] = test system: Salmonella enterica subsp. enterica serovar Enteritidis ATCC 13076
[22] = test system: Escherichia coli BL21(DE3)
[23] = test system: Pseudomonas putida GPp104
Escherichia coli JM109 = test system: Escherichia coli JM109
Cupriavidus necator H16 = test system: Cupriavidus necator H16
[24] = test system: Erwinia amylovora PMV 6076
[25] = test system: Xanthomonas campestris pv. Vesicatoria 2133-2
[26] = test system: Pseudomonas syringae pv. syringae EPS 94
[27] = test system: Pseudomonas syringae pv. actinidiae Psa3700.1.1
[28] = test system: Xanthomonas fragariae Xf349-9A
[29] = test system: Xanthomonas arboricola pv. pruni CFBP 5563

Which MIC (Bacillus megaterium) does the source give for `CC[C@H](C)[C@H](NC(=O)[C@H](Cc1cnc[nH]1)NC(=O)[C@@H]1CCCN1C(=O)[C@@H](NC(=O)[C@H](CC(C)C)NC(=O)[C@H](CO)NC(=O)[C@H](CC(C)C)NC(=O)[C@@H](N)Cc1ccccc1)[C@@H](C)CC)C(=O)N[C@H](C(=O)N[C@@H](CO)C(=O)NCC(=O)N[C@H](C(=O)N[C@@H](C)C(=O)N[C@@H](C)C(=O)N[C@@H](CC(C)C)C(=O)N[C@@H](C)C(=O)N[C@@H](CCCCN)C(=O)N[C@@H](Cc1cnc[nH]1)C(=O)N[C@@H](CC(C)C)C(=O)NCC(=O)O)C(C)C)C(C)C` [FLSLIPHIVSGVAALAKHLG] here?
Its MIC is 3.1 µM (≈ 6.33 µg/mL).

And the MIC (Staphylococcus aureus)?
The MIC was 12.5 µM (≈ 25.5 µg/mL).

Which results are given for `CC[C@H](C)[C@H](NC(=O)CN)C(=O)NCC(=O)N[C@@H](CCCCN)C(=O)N[C@@H](Cc1ccccc1)C(=O)N[C@@H](CC(C)C)C(=O)N[C@@H](CCCCN)C(=O)N[C@@H](CCCCN)C(=O)N[C@@H](C)C(=O)N[C@@H](CCCCN)C(=O)N[C@@H](CCCCN)C(=O)N[C@@H](Cc1ccccc1)C(N)=O` [GIGKFLKKAKKF]?
MIC [1]: 4.15 µM (≈ 5.65 µg/mL); MIC [2]: ≥ 375 µM; MIC [3]: ≥ 33.2 µM; MIC [4]: 375 µM (≈ 512 µg/mL)

What does the source list for `CC[C@H](C)[C@H](NC(=O)CN)C(=O)N[C@@H](Cc1cnc[nH]1)C(=O)N[C@@H](CC(=O)O)C(=O)N[C@H](C(=O)N[C@@H](C)C(=O)N[C@@H](CCCCN)C(=O)N[C@@H](Cc1ccc(O)cc1)C(=O)NCC(=O)N[C@@H](CCCCN)C(=O)N1CCC[C@H]1C(=O)N[C@@H](CO)C(N)=O)[C@@H](C)CC` [GIHDIAKYGKPS]?
MIC [5]: 5 µM (≈ 6.42 µg/mL); MIC [6]: > 50 µM; MIC [7]: ≥ 50 µM; MIC [8]: ≥ 50 µM; MIC [9]: 20 µM (≈ 25.7 µg/mL)

With `CC[C@H](C)[C@H](NC(=O)[C@H](CC(C)C)NC(=O)[C@H](CCCCN)NC(=O)[C@H](CCCN=C(N)N)NC(=O)[C@@H](N)CCCCN)C(=O)N[C@@H](Cc1ccccc1)C(=O)N[C@@H](CC(C)C)C(=O)N[C@@H](C)C(=O)N[C@@H](C)C(=O)N[C@@H](Cc1ccccc1)C(=O)N[C@@H](CC(C)C)C(=O)N[C@@H](C)C(=O)N[C@@H](C)C(=O)N[C@@H](CC(C)C)C(=O)N[C@@H](C)C(=O)N[C@@H](CC(C)C)C(=O)N[C@@H](Cc1ccccc1)C(=O)N[C@@H](CCCCN)C(=O)N[C@@H](CCCCN)C(=O)N[C@@H](CCCN=C(N)N)C(N)=O` [KRKLIFLAAFLAALALFKKR] as the molecule, how does the MIC [10] read?
The MIC was 17.2 µM (≈ 40 µg/mL).

What about the MIC [11] of the same molecule?
Its MIC is 1.08 µM (≈ 2.5 µg/mL).

And the MIC [12]?
Its MIC is 17.2 µM (≈ 40 µg/mL).

What about the MIC [13] of the same molecule?
The MIC was 17.2 µM (≈ 40 µg/mL).

What about the MIC (Cladosporium herbarum) of the same molecule?
The MIC was 17.2 µM (≈ 40 µg/mL).

And the MIC [14]?
The MIC was 8.62 µM (≈ 20 µg/mL).

And the MIC (Botrytis cinerea)?
Its MIC is no less than 43.1 µM.

What about the MIC (Alternaria alternata) of the same molecule?
Its MIC is no less than 43.1 µM.

What about the MIC [15] of the same molecule?
The MIC was 17.2 µM (≈ 40 µg/mL).

For `CC[C@H](C)[C@H](NC(=O)[C@H](CCCCN)NC(=O)[C@H](CCCN=C(N)N)NC(=O)[C@H](CC(C)C)NC(=O)[C@H](Cc1ccccc1)NC(=O)[C@H](CCCN=C(N)N)NC(=O)CNC(=O)[C@H](Cc1ccccc1)NC(=O)[C@H](CCCN=C(N)N)NC(=O)CNC(=O)[C@H](CCCN=C(N)N)NC(=O)[C@H](CCC(N)=O)NC(=O)[C@@H](NC(=O)[C@@H](N)CC(C)C)C(C)C)C(=O)N[C@@H](CCCN=C(N)N)C(=O)O` [LVQRGRFGRFLRKIR], which MIC [16] is on record?
The MIC was 5.66 µM and 16 µM.

What about the MIC [17] of the same molecule?
Its MIC is 5.66 µM and 16 µM.

What about the MIC [18] of the same molecule?
The MIC was 5.66 µM and 11.3 µM.

And the MIC [19]?
Its MIC is 16 µM (≈ 30.4 µg/mL).

And the MIC [4]?
Its MIC is 8 µM and 16 µM.

And the MIC [20]?
Its MIC is 8 µM and 16 µM.

What about the MIC [21] of the same molecule?
The MIC was 4 µM and 5.66 µM.

Which results are given for `CC[C@H](C)[C@H](NC(=O)[C@H](Cc1ccc(O)cc1)NC(=O)[C@@H](NC(=O)[C@@H]1CCCN1C(=O)[C@H](CCCN=C(N)N)NC(=O)[C@@H](NC(=O)CNC(=O)[C@@H](N)CCCN=C(N)N)C(C)C)C(C)C)C(=O)N1CCC[C@H]1C(=O)N[C@@H](CCC(N)=O)C(=O)N1CCC[C@H]1C(=O)N[C@@H](CCCN=C(N)N)C(=O)N1CCC[C@H]1C(=O)N1CCC[C@H]1C(=O)N[C@@H](Cc1cnc[nH]1)C(=O)N1CCC[C@H]1C(=O)N[C@@H](CCCN=C(N)N)C(=O)N[C@@H](CC(C)C)C(=O)O` [RGVRPVYIPQPRPPHPRL]?
MIC [22]: 0.313 µM (≈ 0.668 µg/mL); MIC [23]: 6.25 µM (≈ 13.3 µg/mL); MIC (Escherichia coli JM109): 6.25 µM (≈ 13.3 µg/mL); MIC (Cupriavidus necator H16): 25 µM (≈ 53.4 µg/mL)

For `CC[C@H](C)[C@H](NC(=O)[C@H](Cc1ccc(O)cc1)NC(=O)[C@@H](NC(=O)[C@@H]1CCCN1C(=O)[C@H](CCCN=C(N)N)NC(=O)[C@@H]1CCCN1C(=O)[C@H](CC(C)C)NC(=O)[C@@H](N)CCCN=C(N)N)C(C)C)C(=O)N1CCC[C@H]1C(=O)N[C@@H](CCC(N)=O)C(=O)N1CCC[C@H]1C(=O)N[C@@H](CCCN=C(N)N)C(=O)N1CCC[C@H]1C(=O)N1CCC[C@H]1C(=O)N[C@@H](Cc1cnc[nH]1)C(=O)N1CCC[C@H]1C(=O)N[C@@H](CCCN=C(N)N)C(=O)N[C@@H](CC(C)C)C(=O)O` [RLPRPVYIPQPRPPHPRL], which MIC [22] is on record?
The MIC was 1.25 µM (≈ 2.74 µg/mL).

And the MIC [23]?
Its MIC is 12.5 µM (≈ 27.4 µg/mL).

What about the MIC (Escherichia coli JM109) of the same molecule?
The MIC was 25 µM (≈ 54.7 µg/mL).

What about the MIC (Cupriavidus necator H16) of the same molecule?
Its MIC is no less than 50 µM.

Which MIC [16] does the source give for `CC[C@H](C)[C@H](NC(=O)[C@@H](NC(=O)[C@@H](NC(=O)[C@@H](NC(=O)[C@@H](NC(=O)[C@H](CCCCN)NC(=O)[C@@H]1CCCN1C(=O)[C@H](CCCN=C(N)N)NC(=O)[C@H](Cc1ccccc1)NC(=O)[C@H](CCCN=C(N)N)NC(=O)[C@@H](N)CCCN=C(N)N)C(C)C)[C@@H](C)O)[C@@H](C)CC)[C@@H](C)O)C(=O)N[C@@H](CCC(N)=O)C(=O)NCC(=O)N[C@@H](CO)C(=O)N[C@@H](C)C(=O)N[C@@H](CCCN=C(N)N)C(=O)N[C@@H](Cc1ccccc1)C(=O)O` [RRFRPKVTITIQGSARF] here?
The MIC was 2 µM and 4 µM.

What about the MIC [17] of the same molecule?
Its MIC is 4 µM (≈ 8.13 µg/mL).

What about the MIC [18] of the same molecule?
Its MIC is 2.83 µM and 4 µM.

And the MIC [19]?
The MIC was 5.66 µM and 8 µM.

What about the MIC [4] of the same molecule?
The MIC was 2.83 µM and 4 µM.

And the MIC [20]?
The MIC was 4 µM (≈ 8.13 µg/mL).

What about the MIC [21] of the same molecule?
Its MIC is 4 µM (≈ 8.13 µg/mL).

With `CC(C)C[C@H](NC(=O)[C@H](CCCN=C(N)N)NC(=O)[C@H](CC(N)=O)NC(=O)[C@H](CCCCN)NC(=O)[C@H](CCC(=O)O)NC(=O)[C@H](CCC(=O)O)NC(=O)[C@H](CCC(=O)O)NC(=O)[C@@H](NC(=O)[C@H](CC(C)C)NC(=O)[C@H](CCCCN)NC(=O)[C@@H](NC(=O)[C@H](CCCCN)NC(=O)[C@H](CCCCN)NC(=O)[C@@H](N)[C@@H](C)O)[C@@H](C)O)[C@@H](C)O)C(N)=O` [TKKTKLTEEEKNRL] as the molecule, how does the MIC [24] read?
The MIC was no less than 50 µM.

What about the MIC [25] of the same molecule?
Its MIC is no less than 50 µM.

What about the MIC [26] of the same molecule?
The MIC was no less than 50 µM.

What about the MIC [27] of the same molecule?
The MIC was no less than 50 µM.

And the MIC [28]?
Its MIC is no less than 50 µM.

And the MIC [29]?
The MIC was no less than 50 µM.

`CC[C@H](C)[C@H](NC(=O)CNC(=O)[C@@H](N)Cc1c[nH]c2ccccc12)C(=O)N[C@@H](CCCN=C(N)N)C(=O)N[C@@H](CCCN=C(N)N)C(=O)N[C@H](C(=O)N[C@@H](CC(C)C)C(=O)N[C@@H](CCCCN)C(=O)N[C@@H](Cc1ccc(O)cc1)C(=O)NCC(=O)N[C@@H](CCCCN)C(=O)N[C@@H](CCCN=C(N)N)C(=O)N[C@@H](CO)C(=O)O)[C@@H](C)CC` [WGIRRILKYGKRS] was tested. Which MIC [5] did it give?
The MIC was 4 µM (≈ 6.53 µg/mL).

What about the MIC [6] of the same molecule?
Its MIC is 10 µM (≈ 16.3 µg/mL).

And the MIC [7]?
Its MIC is 4 µM (≈ 6.53 µg/mL).

And the MIC [8]?
The MIC was 10 µM (≈ 16.3 µg/mL).

And the MIC [9]?
The MIC was 20 µM (≈ 32.7 µg/mL).
